Consider 27 compounds from US8377974B2 (Millennium Pharmaceuticals, Inc., priority 2004, dated 2013).

The target of this test is T1, human plasma protein factor Xa (Homo sapiens, UniProt P00742).
T1 construct: measure proteolytic activity of the enzyme (factor Xa); purchased Haematologic Technologies (Essex Junction, Vt.); host or cells: human plasma
T1 sequence (P00742 235-488 limits assumed): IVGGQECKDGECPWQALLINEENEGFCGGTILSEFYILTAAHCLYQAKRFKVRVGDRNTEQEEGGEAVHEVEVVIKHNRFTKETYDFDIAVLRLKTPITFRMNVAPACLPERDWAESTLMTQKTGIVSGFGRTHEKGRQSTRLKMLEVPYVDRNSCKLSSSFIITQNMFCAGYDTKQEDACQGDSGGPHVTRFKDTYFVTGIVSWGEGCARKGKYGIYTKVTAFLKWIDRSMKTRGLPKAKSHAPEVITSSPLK
T1 sequence (P00742 41-179 partner limits assumed): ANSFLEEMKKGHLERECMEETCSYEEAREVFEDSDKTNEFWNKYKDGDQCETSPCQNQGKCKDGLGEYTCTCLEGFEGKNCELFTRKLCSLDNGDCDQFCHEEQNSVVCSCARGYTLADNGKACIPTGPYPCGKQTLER
Put plainly: Factor Xa IC50 determination: cleavage of paranitroanilide substrate S-2765 in 96-well plates. The class given is biochemical. The settings on record: fXa 1 nM, S-2765 100 μM, Tris buffered saline pH 7.4, room temperature. An excerpt:
This example illustrates methods for evaluating the compounds of the invention, along with results obtained for such assays. The in vitro and in vivo Factor Xa isoform activities of the inventive compounds can be determined by various procedures known in the art, such as a test for their ability to inhibit the activity of the Factor Xa isoform. […] The IC50 value is the concentration (in nM) of the compound required to provide 50% inhibition of Factor Xa isoform.
An in vitro assay for detecting and measuring inhibition activity against Factor Xa is as follows:
The substrate S-2765 (Z-D-Arg-Gly-Arg-pNA.HCl) was obtained from Diapharma (West Chester, Ohio).
The human plasma protein factor Xa was purchased from Haematologic Technologies (Essex Junction, Vt.).
All assays, which are performed in 96-well microtiter plates, measure proteolytic activity of the enzyme (factor Xa) by following cleavage of paranitroanilide substrate. The assay buffer used for proteolytic assays was Tris buffered saline (20 mM Tris, 150 mM NaCl, 5 mM CaCl2, 0.1% Bovine serum albumin (BSA), 5% Dimethly Sulfoxide (DMSO) pH 7.4). In a 96-well microtiter plate, inhibitor was serially diluted to give a range of concentrations from 0.01 nM to 10 μM (final). Duplicate sets of wells were assayed and control wells without inhibitor were included. Enzyme was added to each well, (fXa concentration=1 nM), the plate was shaken for 5 seconds and then incubated for 5 minutes at room temperature. S2765 was added (100 μM final) and the plate was shaken for 5 seconds (final liquid volume in each well was 200 μl). The degree of substrate hydrolysis was measured at 405 nm on a Thermomax plate reader (Molecular Devices, Sunnyvale, Calif.) for 2 minutes. The initial velocities (mOD/min), for each range of inhibitor concentrations, were fitted to a four parameter equation using Softmax data analysis software. The parameter C, derived from the resulting curve-fit, corresponded to the concentration for half maximal inhibition (IC50).
As to `CCN(C)C(=N)c1ccc(-c2cc(CNC(=O)c3ccc(Cl)s3)on2)cc1` [Example 28, 5-Chloro-thiophene-2-carboxylic acid {3-[4-(N-ethyl-N-methyl-carbamimidoyl)-phenyl]-isoxazol-5-ylmethyl}-amide], the IC50 was at most 100 nM.

For the compound `CCCN(C)C(=N)c1ccc(-c2cc(CNC(=O)c3ccc(Cl)s3)on2)cc1` [Example 29, 5-Chloro-thiophene-2-carboxylic acid {3-[4-(N-methyl-N-propyl-carbamimidoyl)-phenyl]-isoxazol-5-ylmethyl}-amide], the IC50 was at most 100 nM.

Take `CN(C)CCN(C)C(=N)c1ccc(-c2cc(CNC(=O)c3ccc(Cl)s3)on2)cc1` [Example 30, 5-Chloro-thiophene-2-carboxylic acid (3-{4-[N-(2-dimethylamino-ethyl)-N-methyl-carbamimidoyl]-phenyl}-isoxazol-5-ylmethyl)-amide]: the IC50 was at most 100 nM.

With `CN(Cc1ccco1)C(=N)c1ccc(-c2cc(CNC(=O)c3ccc(Cl)s3)on2)cc1` [Example 31, 5-Chloro-thiophene-2-carboxylic acid {3-[4-(N-furan-2-ylmethyl-N-methyl-carbamimidoyl)-phenyl]-isoxazol-5-ylmethyl}-amide], the IC50 is at most 100 nM.

Take `COCCN(C)C(=N)c1ccc(-c2cc(CNC(=O)c3ccc(Cl)s3)on2)cc1` [Example 32, 5-Chloro-thiophene-2-carboxylic acid (3-{4-[N-(2-methoxy-ethyl)-N-methyl-carbamimidoyl]-phenyl}-isoxazol-5-ylmethyl)-amide]: the IC50 is at most 100 nM.

In the case of `C#CCN(C)C(=N)c1ccc(-c2cc(CNC(=O)c3ccc(Cl)s3)on2)cc1` [Example 33, 5-Chloro-thiophene-2-carboxylic acid {3-[4-(N-methyl-N-prop-2-ynyl-carbamimidoyl)-phenyl]-isoxazol-5-ylmethyl}-amide], the IC50 lay in the range of 100 to 500 nM.

As to `CNC(=N)c1ccc(-c2cc(CNC(=O)c3ccc(Cl)s3)on2)cc1` [Example 34, 5-Chloro-thiophene-2-carboxylic acid {3-[4-(N-methylcarbamimidoyl)-phenyl]-isoxazol-5-ylmethyl}-amide], the IC50 was at least 500 nM.

`CN(C)C(=N)c1ccc(-c2cc(CN(C)C(=O)c3ccc(Cl)s3)on2)cc1` [Example 35, 5-Chloro-thiophene-2-carboxylic acid {3-[4-(N,N-dimethyl-carbamimidoyl)-phenyl]-isoxazol-5-ylmethyl}-methyl-amide] showed an IC50 of at least 500 nM.

As for `CN(Cc1cc(-c2ccc(C3=NCCN3C)cc2)no1)C(=O)c1ccc(Cl)s1` [Example 36, 5-Chloro-thiophene-2-carboxylic acid methyl-{3-[4-(1-methyl-4,5-dihydro-1H-imidazol-2-yl)-phenyl]-isoxazol-5-ylmethyl}-amide], the IC50 is at least 500 nM.

`CN(Cc1cc(-c2ccc(C(=N)N3CCCC3)cc2)no1)C(=O)c1ccc(Cl)s1` [Example 37, 5-Chloro-thiophene-2-carboxylic acid {3-[4-(imino-pyrrolidin-1-yl-methyl)-phenyl]-isoxazol-5-ylmethyl}-methyl-amide]: the IC50 was at least 500 nM.

In the case of `CN(Cc1cc(-c2ccc(C(=N)N3CCCCC3)cc2)no1)C(=O)c1ccc(Cl)s1` [Example 38, 5-Chloro-thiophene-2-carboxylic acid {3-[4-(imino-piperidin-1-yl-methyl)-phenyl]-isoxazol-5-ylmethyl}-methyl-amide], the IC50 was at least 500 nM.

In turn, `CCOC(=O)C1CCN(C(=N)c2ccc(-c3cc(CN(C)C(=O)c4ccc(Cl)s4)on3)cc2)CC1` [Example 39, 1-{[4-(5-{[(5-Chloro-thiophene-2-carbonyl)-methyl-amino]-methyl}-isoxazol-3-yl)-phenyl]-imino-methyl}-piperidine-4-carboxylic acid ethyl ester] returned an IC50 of at least 500 nM.

Consider `CN(Cc1cc(-c2ccc(C(=N)N3CCC3)cc2)no1)C(=O)c1ccc(Cl)s1` [Example 40, 5-Chloro-thiophene-2-carboxylic acid {3-[4-(azetidin-1-yl-imino-methyl)-phenyl]-isoxazol-5-ylmethyl}-methyl-amide], for which the IC50 was at least 500 nM.

As to `CN(Cc1cc(-c2ccc(C(N3CCC3)=[N+]3CCC3)cc2)no1)C(=O)c1ccc(Cl)s1` [Example 41, 5-Chloro-thiophene-2-carboxylic acid {3-[4-(azetidin-1-yl-azetidin-1-ylidene-methyl)-phenyl]-isoxazol-5-ylmethyl}-methyl-amide], the 50% inhibitory concentration (IC50) is at least 500 nM.

Compound `CCN(C)C(=N)c1ccc(-c2cc(CN(C)C(=O)c3ccc(Cl)s3)on2)cc1` [Example 42, 5-Chloro-thiophene-2-carboxylic acid {3-[4-(N-ethyl-N-methyl-carbamimidoyl)-phenyl]-isoxazol-5-ylmethyl}-methyl-amide] had an IC50 of at least 500 nM.

Consider `CCCN(C)C(=N)c1ccc(-c2cc(CN(C)C(=O)c3ccc(Cl)s3)on2)cc1` [Example 43, 5-Chloro-thiophene-2-carboxylic acid methyl-{3-[4-(N-methyl-N-propyl-carbamimidoyl)-phenyl]-isoxazol-5-ylmethyl}-amide], for which the IC50 is at least 500 nM.

The compound `CN(C)CCN(C)C(=N)c1ccc(-c2cc(CN(C)C(=O)c3ccc(Cl)s3)on2)cc1` [Example 44, 5-Chloro-thiophene-2-carboxylic acid (3-{4-[N-(2-dimethylamino-ethyl)-N-methyl-carbamimidoyl]-phenyl}-isoxazol-5-ylmethyl)-methyl-amide] came in with an IC50 of at least 500 nM.

With `CN(Cc1cc(-c2ccc(C(=N)N3CCC(C(N)=O)CC3)cc2)no1)C(=O)c1ccc(Cl)s1` [Example 45, 1-{[4-(5-{[(5-Chloro-thiophene-2-carbonyl)-methyl-amino]-methyl}-isoxazol-3-yl)-phenyl]-imino-methyl}-piperidine-4-carboxylic acid amide], the IC50 was at least 500 nM.

The compound `COCCN(C)C(=N)c1ccc(-c2cc(CN(C)C(=O)c3ccc(Cl)s3)on2)cc1` [Example 46, 5-Chloro-thiophene-2-carboxylic acid (3-{4-[N-(2-methoxy-ethyl)-N-methyl-carbamimidoyl]-phenyl}-isoxazol-5-ylmethyl)-methyl-amide] had an IC50 of at least 500 nM.

Turning to `C#CCN(C)C(=N)c1ccc(-c2cc(CN(C)C(=O)c3ccc(Cl)s3)on2)cc1` [Example 47, 5-Chloro-thiophene-2-carboxylic acid methyl-{3-[4-(N-methyl-N-prop-2-ynyl-carbamimidoyl)-phenyl]-isoxazol-5-ylmethyl}-amide], the IC50 is at least 500 nM.

Compound `CNC(=N)c1ccc(-c2cc(CN(C)C(=O)c3ccc(Cl)s3)on2)cc1` [Example 48, 5-Chloro-thiophene-2-carboxylic acid methyl-{3-[4-(N-methylcarbamimidoyl)-phenyl]-isoxazol-5-ylmethyl}-amide] displayed an IC50 of at most 100 nM.

`C[C@@H](NC(=O)c1ccc(Cl)s1)c1cc(-c2ccc(C(=N)N(C)C)cc2)no1` [Example 49, (R)-5-Chloro-thiophene-2-carboxylic acid (1-{3-[4-(N,N-dimethyl-carbamimidoyl)-phenyl]-isoxazol-5-yl}-ethyl)-amide] returned an IC50 of at most 100 nM.

With `C[C@@H](NC(=O)c1ccc(Cl)s1)c1cc(-c2ccc(C3=NCCN3C)cc2)no1` [Example 50, (R)-5-Chloro-thiophene-2-carboxylic acid (1-{3-[4-(1-methyl-4,5-dihydro-1H-imidazol-2-yl)-phenyl]-isoxazol-5-yl}-ethyl)-amide], the IC50 is at most 100 nM.

Take `C[C@@H](NC(=O)c1ccc(Cl)s1)c1cc(-c2ccc(C(=N)N3CCCC3)cc2)no1` [Example 51, (R)-5-Chloro-thiophene-2-carboxylic acid (1-{3-[4-(imino-pyrrolidin-1-yl-methyl)-phenyl]-isoxazol-5-yl}-ethyl)-amide]: the IC50 was at most 100 nM.

`C[C@@H](NC(=O)c1ccc(Cl)s1)c1cc(-c2ccc(C(=N)N3CCCCC3)cc2)no1` [Example 52, (R)-5-Chloro-thiophene-2-carboxylic acid (1-{3-[4-(imino-piperidin-1-yl-methyl)-phenyl]-isoxazol-5-yl}-ethyl)-amide] gave an IC50 of at least 500 nM.

In the case of `C[C@H](NC(=O)c1ccc(Cl)s1)c1cc(-c2ccc(C3=NCCN3C)cc2)no1` [Example 54, (S)-5-Chloro-thiophene-2-carboxylic acid (1-{3-[4-(1-methyl-4,5-dihydro-1H-imidazol-2-yl)-phenyl]-isoxazol-5-yl}-ethyl)-amide], the IC50 was at least 500 nM.

Compound `C[C@H](NC(=O)c1ccc(Cl)s1)c1cc(-c2ccc(C(=N)N3CCCC3)cc2)no1` [Example 55, (S)-5-Chloro-thiophene-2-carboxylic acid (1-{3-[4-(imino-pyrrolidin-1-yl-methyl)-phenyl]-isoxazol-5-yl}-ethyl)-amide] showed a 50% inhibitory concentration (IC50) of at least 500 nM.

What is called IC50 is the concentration needed to halve the response being measured.
